Laboratory results published in ChEMBL document CHEMBL1201862, “PubChem BioAssay data set” (2004).
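Dose response: 5 concentrations. Exposure: 48 h. Format: 96-well plates. Endpoint: linear interpolation; highest concentration if not reached. GI50 is the concentration that inhibits growth by half.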 Calls of active or inactive are those of the source. Rule as the data show it: active = GI50 up to about 1.1 µM and inactive = higher.

Experiments:
Assay in all cases: NCI-60 cell line screen, 48 h
786-0 = test system: 786-0
A498 = test system: A498
A549 = test system: A549
ACHN = test system: ACHN
CAKI-1 = test system: CAKI-1
CCRF-CEM = test system: CCRF-CEM
COLO 205 = test system: COLO 205
DLD-1 = test system: DLD-1
DMS-114 = test system: DMS-114
DMS-273 = test system: DMS-273
EKVX = test system: EKVX
HCC 2998 = test system: HCC 2998
HCT-116 = test system: HCT-116
HCT-15 = test system: HCT-15
HOP-18 = test system: HOP-18
HOP-62 = test system: HOP-62
HOP-92 = test system: HOP-92
HT-29 = test system: HT-29
IGROV-1 = test system: IGROV-1
K562 = test system: K562
KM-20L2 = test system: KM-20L2
KM12 = test system: KM12
LOX IMVI = test system: LOX IMVI
LXFL 529 = test system: LXFL 529
M14 = test system: M14
M19-MEL = test system: M19-MEL
MOLT-4 = test system: MOLT-4
Malme-3M = test system: Malme-3M
NCI-H226 = test system: NCI-H226
NCI-H23 = test system: NCI-H23
NCI-H460 = test system: NCI-H460
OVCAR-3 = test system: OVCAR-3
OVCAR-4 = test system: OVCAR-4
OVCAR-5 = test system: OVCAR-5
OVCAR-8 = test system: OVCAR-8
RPMI-8226 = test system: RPMI-8226
RXF 393 = test system: RXF 393
RXF 631 = test system: RXF 631
SF-268 = test system: SF-268
SF-295 = test system: SF-295
SF-539 = test system: SF-539
SK-MEL-28 = test system: SK-MEL-28
SK-MEL-5 = test system: SK-MEL-5
SK-OV-3 = test system: SK-OV-3
SN12C = test system: SN12C
SNB-19 = test system: SNB-19
SNB-75 = test system: SNB-75
SNB-78 = test system: SNB-78
SR = test system: SR
SW-620 = test system: SW-620
TK-10 = test system: TK-10
U-251 = test system: U-251
UACC-257 = test system: UACC-257
UACC-62 = test system: UACC-62
UO-31 = test system: UO-31
XF498 = test system: XF498
HL-60 = test system: HL-60
NCI-H522 = test system: NCI-H522

Measured: GI50

CCN(CC)CC(C)(C)C(=O)/C=C/c1cccc(/C=C/C(=O)C(C)(C)CN(CC)CC)c1
active: 786-0 0.579 µM | CAKI-1 0.286 µM | CCRF-CEM 0.337 µM | COLO 205 0.247 µM | DLD-1 0.237 µM | DMS-114 0.307 µM | DMS-273 0.476 µM | HCT-116 0.361 µM | HOP-92 0.504 µM | HT-29 0.366 µM | IGROV-1 1.02 µM | K562 0.431 µM | KM-20L2 1.07 µM | KM12 0.471 µM | LOX IMVI 0.184 µM | LXFL 529 0.331 µM | M19-MEL 0.959 µM | MOLT-4 0.27 µM | NCI-H460 0.692 µM | OVCAR-3 1.11 µM | OVCAR-4 0.442 µM | OVCAR-8 0.333 µM | RXF 393 0.433 µM | RXF 631 1.09 µM | SF-268 0.429 µM | SF-539 1.05 µM | SN12C 0.303 µM | SNB-75 0.176 µM | SR 0.305 µM | SW-620 0.187 µM | U-251 0.219 µM | XF498 0.409 µM
0.461 µM: HCT-15
inactive: A498 1.36 µM | A549 1.33 µM | ACHN 1.15 µM | EKVX 1.16 µM | HCC 2998 1.22 µM | HOP-18 1.51 µM | HOP-62 2.31 µM | M14 1.48 µM | Malme-3M 1.59 µM | NCI-H226 1.76 µM | NCI-H23 1.3 µM | OVCAR-5 1.63 µM | RPMI-8226 2.06 µM | SF-295 1.74 µM | SK-MEL-28 1.42 µM | SK-MEL-5 1.59 µM | SK-OV-3 1.45 µM | SNB-19 1.79 µM | SNB-78 2.21 µM | TK-10 1.14 µM | UACC-257 1.22 µM | UACC-62 1.74 µM | UO-31 1.75 µM

N=C(N)NS(=O)(=O)c1ccc(NC(=O)c2cccn3c(=O)c4ccccc4nc23)cc1
inactive: 786-0 > 100 µM | A498 > 100 µM | A549 45.6 µM | ACHN 81.8 µM | CAKI-1 > 100 µM | CCRF-CEM 35.6 µM | COLO 205 18.2 µM | DLD-1 83 µM | DMS-114 40.6 µM | DMS-273 32.1 µM | EKVX > 100 µM | HCC 2998 85.7 µM | HCT-116 40.8 µM | HL-60 24.5 µM | HOP-18 > 100 µM | HOP-62 > 100 µM | HOP-92 > 100 µM | HT-29 23.2 µM | IGROV-1 56 µM | K562 32.3 µM | KM-20L2 13.6 µM | KM12 15.9 µM | LOX IMVI 33.7 µM | LXFL 529 37.5 µM | M14 60.8 µM | M19-MEL 31.4 µM | MOLT-4 25.5 µM | Malme-3M > 100 µM | NCI-H226 44.8 µM | NCI-H23 38 µM | NCI-H460 53.1 µM | NCI-H522 35 µM | OVCAR-3 > 100 µM | OVCAR-4 41.6 µM | OVCAR-8 84.5 µM | RPMI-8226 24.9 µM | RXF 393 62.8 µM | RXF 631 41.4 µM | SF-268 > 100 µM | SF-295 85.5 µM | SF-539 > 100 µM | SK-MEL-28 91 µM | SK-MEL-5 27 µM | SK-OV-3 > 100 µM | SN12C 70.8 µM | SNB-19 > 100 µM | SNB-75 > 100 µM | SNB-78 > 100 µM | SR 24.5 µM | SW-620 51.5 µM | TK-10 61 µM | U-251 > 100 µM | UACC-257 19.7 µM | UACC-62 32.9 µM | UO-31 55.1 µM | XF498 22.5 µM
